# Results as given in patent EP2264054A1, “Cloning, yeast expression, purification and biological activity of a truncated form of the soybean 7S globulin alfa ' subunit involved in Hep G2 cell cholesterol homeostasis” (Indena S.p.A., priority 2009, dated 2010).
# Experiments:
# HepG2 cells [1] = assay: Uptake of 125I-LDL by HepG2 cells; assay type: cell-based, human; settings: 1.0 µmol/L
# Description: Cell cultures. The established human hepatoma cell line (HepG2) was obtained from American Type Culture Collection (Rockville, MD). Eagle's minimum essential medium (MEM), fetal calf serum, trypsin-EDTA (1x), penicillin (10^5 U/L), streptomycin ([…]), tricine buffer (1 mmol/L, pH 7.4) and non-essential amino acid solutions (100x) were from GIBCO (Madison, WI). Petri dishes were from COSTAR (Cambridge, MA). Filters were from Millipore (Bedford, MA). The Protein Coomassie Plus Protein Assay kit was purchased from Pierce (Rockford, IL, USA). ^125Iodine, carrier free, in 100 mmol/L NaOH, was from Perkin Elmer Life Sciences (Boston, MA). Sephadex G25 columns (PD10) were from Pharmacia Biotech (Uppsala, Sweden). LDH and MTT kit were from Sigma Diagnostics (Milano-Italy). All other chemicals were of analytical grade from Merck (Darmstadt, Germany). […] Cell enzyme leakage was determined by measuring lactate dehydrogenase (LDH) activity, using a kinetic (LDH/LD) diagnostic kit (Sigma Diagnostics). […]
# Uptake and degradation of ^125I-LDL. […] Specific uptake (binding + internalization) and degradation of ^l25I-LDL were evaluated as previously reported. […] Differences in cell uptake and degradation of LDL after cell incubation with tα' at different concentrations were determined by ANOVA followed by Dunnett's test. Values are expressed as means ± SD; P values < 0.05 were considered as statistically significant.
# HepG2 cells [2] = assay: Degradation of 125I-LDL by HepG2 cells; assay type: cell-based, human; settings: 1.0 µmol/L
# Description: Cell cultures. […] Cells were grown in monolayers in 90 mm-diameter Petri dishes, and maintained at 37°C in a humidified atmosphere of 95% air, 5% CO2 in MEM supplemented with 10% fetal calf serum (FCS), non essential amino acid solution (1%, v/v), penicillin (10^5 U/L), streptomycin (0.1 g/L), tricine buffer (20 mmol/L, pH 7.4), NaHCO3 (24 mmol/L) and sodium pyruvate (0.11 g/L). For experiments designed to evaluate the LDL receptor modulation, cells were seeded in 35 mm plastic dishes (3-5 x 10^5 cells) and used just before reaching confluence. In all cell culture experiments, the medium was changed every 2-3 days. In order to assess cell viability, culture media from cells exposed to tα' at different concentrations were tested by methyltetrazolium salts (MTT) assay, essentially as described in ref. 9. Cell enzyme leakage was determined by measuring lactate dehydrogenase (LDH) activity, using a kinetic (LDH/LD) diagnostic kit (Sigma Diagnostics). […]
# Uptake and degradation of ^125I-LDL. […] Specific uptake (binding + internalization) and degradation of ^l25I-LDL were evaluated as previously reported [2]. […] Differences in cell uptake and degradation of LDL after cell incubation with tα' at different concentrations were determined by ANOVA followed by Dunnett's test. Values are expressed as means ± SD; P values < 0.05 were considered as statistically significant.
# LDL-R = settings: Hep G2 cells exposed to the peptide at 100 µM; cited from earlier work
# [3] = 24 h preincubation in MEM with 5% LPDS, then 125I-LDL 7.5 mg/L for 5 h, mean ± SD
Compound,Uptake (HepG2 cells [1]; [3]),Uptake (HepG2 cells [1]; relative to LPDS = 100) [%],Degradation (HepG2 cells [2]; [3]),Degradation (HepG2 cells [2]; relative to LPDS = 100) [%],increased LDL-R transcription (LDL-R)
CCC(C)(C)C(=O)O[C@H]1C[C@@H](C)C=C2C=C[C@H](C)[C@H](CC[C@@H]3C[C@@H](O)CC(=O)O3)[C@H]21 [Simvastatin],250 ± 11.2 ng125I-LDL/ mg cell proteins,278,195 ± 7.9 ng125I-LDL/ mg cell protein,250,–
"FVVNATSN [LDL-R transcription stimulating peptide deriving from the 7S globulin β chain, from a soybean hydrolysate and by chemical synthesis]",–,–,–,–,+148%
